Measured values: patent publication US6506749B2, “7-oxo-pyridopyrimidines (I)” (Syntex (U.S.A.) LLC, priority 2000, dated 2003)

melting point [°C] | Compound
140 to 144 | Cl.Cn1c(=O)c(-c2ccccc2Cl)cc2cnc(N[C@H]3CCCCNC3=O)nc21
189 to 192 | COC1CCC(Nc2ncc3cc(-c4ccccc4Cl)c(=O)n(C)c3n2)CC1.Cl (stereo not shown)
> 300 | Cl.Cn1c(=O)c(-c2ccccc2Cl)cc2cnc(NC3CC(C)(C)NC(C)(C)C3)nc21
193.3 to 194.1 | CCCS(=O)(=O)N1CCC(Nc2ncc3cc(-c4ccccc4Cl)c(=O)n(C)c3n2)CC1.Cl
134 to 140 | Cl.Cn1c(=O)c(-c2ccccc2Cl)cc2cnc(NC3CCN(S(=O)(=O)C(F)(F)F)CC3)nc21
215 to 219 | Cl.Cn1c(=O)c(-c2ccccc2Cl)cc2cnc(NC3CCN(S(=O)(=O)CC(F)(F)F)CC3)nc21
256 to 260 | Cl.Cn1c(=O)c(-c2ccccc2Cl)cc2cnc(NC3CCS(=O)(=O)C3)nc21 (stereo not shown)
222.9 to 225.9 | Cc1ccccc1-c1cc2cnc(NC3CCOCC3)nc2n(C)c1=O.Cl
132 to 136 | CC(C)S(=O)(=O)N1CCC(Nc2ncc3cc(-c4ccccc4Cl)c(=O)n(C)c3n2)CC1.Cl
144 to 150 | CCS(=O)(=O)N1CCC(Nc2ncc3cc(-c4ccccc4Cl)c(=O)n(C)c3n2)CC1.Cl
212 to 213.7 | COc1ccccc1-c1cc(/C=N\C(=N)NC2CCOCC2)cn(C)c1=O.Cl
210.7 to 211.9 | Cl.Cn1cc(/C=N\C(=N)NC2CCOCC2)cc(-c2ccccc2N)c1=O
274.4 to 274.8 | Cl.Cn1c(=O)c(-c2ccccc2Cl)cc2cnc(NN3CCN(CCO)CC3)nc21
221.4 to 221.8 | Cc1ccccc1-c1cc2cnc(NC3CCN(S(C)(=O)=O)CC3)nc2n(C)c1=O.Cl
218.5 to 219.3 | CCS(=O)(=O)N1CCC(Nc2ncc3cc(-c4ccccc4C)c(=O)n(C)c3n2)CC1.Cl
193.9 to 194.5 | Cl.Cn1c(=O)c(-c2ccccc2Cl)cc2cnc(NC3CCOC3)nc21 (stereo not shown)
171.9 to 173 | Cl.Cn1c(=O)c(-c2ccccc2Cl)cc2cnc(N[C@@H]3CCOC3)nc21
205 to 207.5 | Cl.Cn1c(=O)c(-c2ccccc2F)cc2cnc(NC3CCN(S(C)(=O)=O)CC3)nc21
192.5 to 195 | CCS(=O)(=O)N1CCC(Nc2ncc3cc(-c4ccccc4F)c(=O)n(C)c3n2)CC1.Cl
192 to 202 | Cl.Cn1c(=O)c(-c2ccccc2Cl)cc2cnc(NC3CCN(C(N)=O)CC3)nc21
204 to 209 | CC(C)S(=O)(=O)N1CCC(Nc2ncc3cc(-c4ccccc4F)c(=O)n(C)c3n2)CC1.Cl

melting point [°C] | Compound
206 to 209 | CCCS(=O)(=O)N1CCC(Nc2ncc3cc(-c4ccccc4F)c(=O)n(C)c3n2)CC1.Cl
213.5 to 221 | Cl.Cn1c(=O)c(-c2ccccc2F)cc2cnc(NC3CCN(S(=O)(=O)C(F)(F)F)CC3)nc21
225.9 to 226.4 | Cl.Cn1c(=O)c(-c2ccccc2F)cc2cnc(NC3CCN(S(=O)(=O)CC(F)(F)F)CC3)nc21
199.2 to 199.5 | CC1C(=O)C(c2ccccc2Cl)=Cc2cnc(NOCc3ccccc3)nc21.Cl (stereo not shown)
142 to 149 | Cc1ccccc1-c1cc2cnc(NC3CCN(S(=O)(=O)C(C)C)CC3)nc2n(C)c1=O.Cl
153 to 162 | Cc1ccccc1-c1cc2cnc(NC3CCN(S(=O)(=O)C(F)(F)F)CC3)nc2n(C)c1=O.Cl
202.7 to 204.3 | COc1ccccc1-c1cc2cnc(NC3CCN(S(C)(=O)=O)CC3)nc2n(C)c1=O.Cl
120.3 to 139.7 | CCS(=O)(=O)N1CCC(Nc2ncc3cc(-c4ccccc4OC)c(=O)n(C)c3n2)CC1.Cl
157 to 163.1 | COc1ccccc1-c1cc2cnc(NC3CCN(S(=O)(=O)C(C)C)CC3)nc2n(C)c1=O.Cl
59.7 to 63.8 | CCCS(=O)(=O)N1CCC(Nc2ncc3cc(-c4ccccc4OC)c(=O)n(C)c3n2)CC1.Cl
140.8 to 147.3 | COc1ccccc1-c1cc2cnc(NC3CCN(S(=O)(=O)C(F)(F)F)CC3)nc2n(C)c1=O.Cl
194.7 to 196 | COc1ccccc1-c1cc2cnc(NC3CCN(S(=O)(=O)CC(F)(F)F)CC3)nc2n(C)c1=O.Cl
207.1 to 215.9 | Cl.Nn1c(=O)c(-c2ccccc2Cl)cc2cnc(NC3CCOCC3)nc21
182 to 186 | Cl.O=c1c(-c2ccccc2Cl)cc2cnc(NC3CCS(=O)(=O)CC3)nc2n1CCO
223.7 to 230.2 | CC(C)(C)Cn1c(=O)c(-c2ccccc2Cl)cc2cnc(NC3CCS(=O)(=O)CC3)nc21.Cl
180.7 to 213.2 | CS(=O)(=O)N1CCC(Nc2ncc3cc(-c4ccccc4Cl)c(=O)n(N)c3n2)CC1.Cl
180.3 to 181.2 | Cl.Cn1c(=O)c(-c2ccccc2Cl)cc2cnc(NC3CCC4(CC3)OCC(C)(CO)CO4)nc21 (stereo not shown)
240 to 258 | Cc1ccccc1-c1cc2cnc(NC3CCS(=O)(=O)CC3)nc2n(C)c1=O.Cl
240 to 243 | Cl.Nn1c(=O)c(-c2ccccc2Cl)cc2cnc(NC3CCS(=O)(=O)CC3)nc21
285.2 to 286.7 | CCn1c(=O)c(-c2ccccc2Cl)cc2cnc(NC3CCS(=O)(=O)CC3)nc21.Cl
145 to 163 | CC(C)(CO)Nc1ncc2cc(-c3ccccc3Cl)c(=O)n(N)c2n1.Cl

melting point [°C] | Compound
180.7 to 189.2 | CC(CCO)Nc1ncc2cc(-c3ccccc3Cl)c(=O)n(C)c2n1.Cl (stereo not shown)
> 300 | C[C@H](Nc1ncc2cc(-c3ccccc3Cl)c(=O)n(N)c2n1)C(C)(C)O.Cl
111.3 to 117.5 | CC(C)CNn1c(=O)c(-c2ccccc2Cl)cc2cnc(NC3CCOCC3)nc21.Cl
290 to 293 | Cl.O=c1[nH]c2nc(NC3(CO)CCCC3)ncc2cc1-c1ccccc1Cl
146 to 150 | Cl.Cn1c(=O)c(-c2ccccc2Cl)cc2cnc(NC3CCC4(CC3)OCC(CO)CO4)nc21 (stereo not shown)
263.6 to 264.2 | Cl.Cn1c(=O)c(-c2ccccc2Cl)cc2cnc(NC3CCC(C(=O)O)CC3)nc21 (stereo not shown)
191.1 to 194.3 | Cl.O=c1[nH]c2nc(N[C@H]3CC[C@H](O)CC3)ncc2cc1-c1ccccc1Cl
143 to 148 | Cl.Cn1c(=O)c(-c2ccccc2Cl)cc2cnc(NC3CCN(C=O)CC3)nc21
153.6 to 157 | Cl.Cn1c(=O)c(-c2ccccc2Cl)cc2cnc(NC3CCC(CO)CC3)nc21 (stereo not shown)
148 to 151.5 | Cl.Cn1c(=O)c(-c2ccccc2Cl)cc2cnc(NCC3CCC(O)CC3)nc21 (stereo not shown)
205 to 213 | Cl.O=c1[nH]c2nc(NCC3CCC(O)CC3)ncc2cc1-c1ccccc1Cl (stereo not shown)
228.3 to 228.9 | Cl.Cn1c(=O)c(-c2ccccc2Cl)cc2cnc(NC3CCN(CC#N)CC3)nc21
> 300 | CS(=O)(=O)N[C@H]1CC[C@H](Nc2ncc3cc(-c4ccccc4Cl)c(=O)[nH]c3n2)CC1.Cl
> 300 | CC(=O)O[C@H]1CC[C@H](Nc2ncc3cc(-c4ccccc4Cl)c(=O)[nH]c3n2)CC1.Cl
> 300 | Cl.Cn1c(=O)c(-c2ccccc2Cl)cc2cnc(NC3CCC4(CC3)NC(=O)NC4=O)nc21 (stereo not shown)
150 to 168 | COC(=O)CN1CCC(Nc2ncc3cc(-c4ccccc4Cl)c(=O)n(C)c3n2)CC1.Cl
265.5 to 269.9 | Cl.O=C1CCC(Nc2ncc3cc(-c4ccccc4Cl)c(=O)[nH]c3n2)CC1
> 300 | Cl.O=c1[nH]c2nc(NC3CCNCC3)ncc2cc1-c1ccccc1Cl
234.7 to 235.4 | Cl.Cn1c(=O)c(-c2ccccc2Cl)cc2cnc(N[C@H]3CC[C@H](OC(N)=O)CC3)nc21
291 to 293.5 | Cl.NC(=O)O[C@H]1CC[C@H](Nc2ncc3cc(-c4ccccc4Cl)c(=O)[nH]c3n2)CC1
260.9 to 261.1 | Cl.Cn1c(=O)c(-c2ccccc2Cl)cc2cnc(N[C@H]3CC[C@H](NS(C)(=O)=O)CC3)nc21

melting point [°C] | Compound
226.5 to 229 | CN(C)S(=O)(=O)N[C@H]1CC[C@H](Nc2ncc3cc(-c4ccccc4Cl)c(=O)n(C)c3n2)CC1.Cl
210.5 to 212 | Cl.O=c1c(-c2ccccc2Cl)cc2cnc(N[C@H]3CC[C@H](O)CC3)nc2n1CCO
262.2 to 262.5 | CN(C)S(=O)(=O)N[C@H]1CC[C@H](Nc2ncc3cc(-c4ccccc4Cl)c(=O)[nH]c3n2)CC1.Cl
182.3 to 183.1 | CO[C@H]1CC[C@H](N(C)c2ncc3cc(-c4ccccc4Cl)c(=O)n(C)c3n2)CC1.Cl
218.2 to 218.5 | CO[C@H]1CC[C@H](Nc2ncc3cc(-c4ccccc4Cl)c(=O)n(C)c3n2)CC1.Cl
265.9 to 266.6 | Cl.Cn1c(=O)c(-c2ccccc2Cl)cc2cnc(NC3CCN(CCO)CC3)nc21
204.6 to 205.6 | Cl.Cn1c(=O)c(-c2ccccc2Cl)cc2cnc(NC3CCN(CCS(C)(=O)=O)CC3)nc21
185 to 194 | Cl.Cn1c(=O)c(-c2ccccc2Cl)cc2cnc(NC3CCN(S(C)(=O)=O)CC3)nc21
64 to 102.6 | CNC(=O)CN1CCC(Nc2ncc3cc(-c4ccccc4Cl)c(=O)n(C)c3n2)CC1.Cl
242.7 to 243.6 | Cl.O=C1CCC(Nc2ncc3cc(-c4ccccc4Cl)c(=O)n(-c4ccc(F)cc4)c3n2)CC1
156 to 169 | Cl.Cn1c(=O)c(-c2ccccc2Cl)cc2cnc(N[C@H]3CC[C@@](C)(O)CC3)nc21
213.9 to 214.4 | COC(=O)O[C@H]1CC[C@H](Nc2ncc3cc(-c4ccccc4Cl)c(=O)n(C)c3n2)CC1.Cl
> 300 | Cl.O=c1[nH]c2nc(NC3CCOCC3)ncc2cc1-c1ccccc1Cl
150 to 154 | Cl.O=c1c(-c2ccccc2Cl)cc2cnc(NC3CCOCC3)nc2n1-c1ccc(F)cc1
180 to 183 | Cl.Cn1c(=O)c(-c2ccccc2Cl)cc2cnc(NC3CCN(CC(F)(F)F)CC3)nc21
148.6 to 151.6 | CS(=O)(=O)N1CCC(Nc2ncc3cc(-c4ccccc4Cl)c(=O)n(CC(F)(F)F)c3n2)CC1.Cl
230.2 to 230.4 | Cl.N#CCn1c(=O)c(-c2ccccc2Cl)cc2cnc(NC3CCOCC3)nc21
217 to 220 | Cl.O=c1c(-c2ccccc2Cl)cc2cnc(NC3CCOCC3)nc2n1CCO
192.1 to 198.3 | CCOC(=O)C1CCC(Nc2ncc3cc(-c4ccccc4Cl)c(=O)n(C)c3n2)CC1.Cl (stereo not shown)
